According to patent US20030199567A1, “Combinations of an alpha-2-delta ligand with a selective inhibitor of cyclooxygenase-2” (priority 2002, published 2003):

How the values were obtained:
[1] = tested on: Experimental Osteoarthritis in Rabbit; assay: Induction of Experimental Osteoarthritis in Rabbit (EOA in Rabbit); type: in vivo; conditions: conclusion drawn from the expected study
Procedure: Induction of Experimental Osteoarthritis in Rabbit (“EOA in Rabbit”)
Normal rabbits are anaesthetized and anteromedial incisions of the right knees performed. The anterior cruciate ligaments are visualized and sectioned. The wounds are closed and the animals are housed in individual cages, exercised, and fed ad libitum. Rabbits are given either vehicle (water), a combination comprising valdecoxib and gabapentin, or a combination comprising valdecoxib and 3-(1-aminomethyl-cyclohexylmethyl)-4h-[1,2,4]oxadiazol-5-one hydrochloride (10 rabbits per group). […]
The cartilage changes on the femoral condyles and tibial plateaus are graded separately under a dissecting microscope (Stereozoom, Bausch & Lomb, Rochester, N.Y.). […] The surface area changes are measured and expressed in mm^2. […]
Representative specimens of synovial membrane from the medial and lateral knee compartments are dissected from underlying tissues. […] The average is calculated and considered as a unit for the whole knee. […]
Mean values and SEM are calculated and statistical analysis is done using the Mann-Whitney U-test.

[2] = cited from earlier work

| Compound | treatment of cartilage damage by the Alpha-2-delta ligand [1] | tolerability ([2]; combined analysis of various clinical studies) | overall upper gastrointestinal safety profile (ulcers, perforations, obstructions and GI bleeds) ([2]; versus conventional NSAIDs such as ibuprofen, diclofenac and naproxen) |
| --- | --- | --- | --- |
| NCC1(CC(=O)O)CCCCC1 [gabapentin] | effective | – | – |
| Cc1onc(-c2ccccc2)c1-c1ccc(S(N)(=O)=O)cc1 [valdecoxib, 4-(5-methyl-3-phenyl-4-isoxazolyl)-benzenesulfonamide] | – | well tolerated | significantly better |
| Cl.NCC1(Cc2noc(=O)[nH]2)CCCCC1 [3-(1-aminomethyl-cyclohexylmethyl)-4H-[1,2,4]oxadiazol-5-one hydrochloride] | effective | – | – |
